Where two headings read alike, the source gives them in different places.
Tests used:
[1] = biological target: B. taurus (heart) complex I (Bos taurus, UniProt P03887+P17694+P42026); test: biochemical; type: biochemical
Procedure, shortened: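 Complex I activity followed as DCIP reduction (600 nm, 30 s reads, 15 min) with 80 μM NADH and 60 μM decylubiquinone in 25 mM KPi pH 7.5 containing 2 μM antimycin A and 2 mM KCN. Freeze-thawed mouse or bovine heart mitochondria at 0.2 mg/mL; initial-rate percent of solvent control, single-point 100 μM or dose-response.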

[2] = system: ben-1 mutant (ECA882) C. elegans; test: microbe, parasite or virus in culture; settings: for LC50: Caenorhabditis elegans; for C. elegans L1 relative development & viability: ECA882 deletion (ben-1); for C. elegans L1 relative development & viability (score 0-1 relative to DMSO controls): strain ECA882, deletion (ben-1)
Method: Liquid development and viability assays were adapted from a previously established chemical screening protocol (Burns et al.)[24]. In brief, a saturated culture of E. coli HB101 was concentrated 2-fold in liquid NGM and 40 μL of this suspension was distributed to each well of a 96-well flat-bottom culture plate. 0.5 μL chemical solution (or DMSO alone) was added to each well (1% DMSO v/v) using either a multi-channel pipette or a pinning tool (V&P Scientific). L1 worms synchronized from an embryo preparation performed the day prior were diluted to a concentration of ~2 worms/μL in M9 buffer; 10 μL worm suspension was then added to each well. Culture plates were sealed with parafilm and placed in a plastic container lined with wet paper towels to prevent evaporation. Containers were then incubated for 6 days at 20 °C with shaking at 165 rpm. Following incubation, 300 μL M9 was added to each well to decrease the turbidity of the HB101-NGM suspension. Single images of each microplate well were then taken on a Nikon Ti Eclipse inverted microscope (Nikon NIS Elements AR). Images were processed using Python scripts to isolate worm-associated pixels from background. Scores of worm development and viability were determined as the sum of worm-associated pixels in each well. Development/viability scores for each well were divided by the development /viability scores for the corresponding DMSO controls, resulting in a relative viability value for each chemical. At least three biological replicates were performed for each dose-response experiment; relative viability values were averaged across replicates. […]
anthelmintics. a. Chemical structures of four commercial benzimidazole anthelmintics (e.g., albendazole, […]
Dose response of four commercial […]
elegans strains: N2, wild type; ECA882, deletion (ben-1); ECA917, F200Y (ben-1); ECA1075, F167Y (ben-1); ECA1080, E198A (ben-1); CB3474, G104D (ben-1). The colour-coded scale denotes the phenotypic outcome of drug treatment (e.g., motility or viability) relative to DMSO controls; white/pale- […]
death and arrested development. c. […]
benzimidazole anthelmintics (blue) were conducted in C. elegans development and viability assays for wild type (N2) and ben-1 mutant (ECA882) C. elegans (see Supplementary Date File 1).
All data used for generation of dose-response curves is the mean of at least three […]
Supplementary Figure 7 (continued). Davie et al.

[3] = B. taurus (heart) mitochondria, mean of replicates, read-out: percent (%) in vitro complex I activity relative to solvent control
[4] = B. taurus (heart) mitochondria, single replicate, read-out: percent (%) in vitro complex I activity relative to solvent control
[5] = read-out: C. elegans ben-1 LC50
[6] = read-out: C. elegans ben-1 log10 LC50 (converted)
[7] = 15.6 µM, score 0-1 relative to DMSO, values >1 set to 1
[8] = 31.3 µM, score 0-1 relative to DMSO, values >1 set to 1
[9] = 1 µM, score 0-1 relative to DMSO, values >1 set to 1
[10] = 2 µM, score 0-1 relative to DMSO, values >1 set to 1
[11] = 3.9 µM, score 0-1 relative to DMSO, values >1 set to 1

Chain of B. taurus (heart) complex I (P03887 whole entry): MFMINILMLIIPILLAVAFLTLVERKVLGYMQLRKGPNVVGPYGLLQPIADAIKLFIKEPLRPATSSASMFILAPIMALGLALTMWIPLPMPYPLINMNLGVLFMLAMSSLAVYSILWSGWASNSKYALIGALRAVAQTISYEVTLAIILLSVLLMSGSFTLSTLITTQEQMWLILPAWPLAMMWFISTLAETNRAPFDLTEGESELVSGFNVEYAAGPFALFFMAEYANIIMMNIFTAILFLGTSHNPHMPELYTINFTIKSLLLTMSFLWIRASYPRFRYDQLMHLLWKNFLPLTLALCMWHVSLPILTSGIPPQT
Chain of B. taurus (heart) complex I (P17694 34-463): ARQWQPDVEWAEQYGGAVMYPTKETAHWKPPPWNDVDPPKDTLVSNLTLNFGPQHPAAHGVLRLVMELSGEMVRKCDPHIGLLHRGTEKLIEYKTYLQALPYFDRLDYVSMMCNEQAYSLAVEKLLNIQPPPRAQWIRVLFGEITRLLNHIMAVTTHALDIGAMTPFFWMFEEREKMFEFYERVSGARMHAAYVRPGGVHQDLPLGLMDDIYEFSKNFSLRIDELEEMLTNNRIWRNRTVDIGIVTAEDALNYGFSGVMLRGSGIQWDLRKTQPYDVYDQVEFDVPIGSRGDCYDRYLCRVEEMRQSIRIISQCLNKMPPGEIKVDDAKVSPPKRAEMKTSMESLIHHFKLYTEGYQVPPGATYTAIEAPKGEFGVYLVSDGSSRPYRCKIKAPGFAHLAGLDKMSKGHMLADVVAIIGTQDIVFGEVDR
Chain of B. taurus (heart) complex I (P42026 38-216): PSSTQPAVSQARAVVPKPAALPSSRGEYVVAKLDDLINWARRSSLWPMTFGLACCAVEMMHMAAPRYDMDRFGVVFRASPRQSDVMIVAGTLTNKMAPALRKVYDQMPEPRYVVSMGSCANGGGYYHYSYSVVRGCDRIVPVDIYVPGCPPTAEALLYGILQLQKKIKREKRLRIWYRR

`COc1ccc(Cc2nccc3cc(OC)c(OC)cc23)cc1OC` [Papaverine, reference compound] showed a remaining activity at 0.125 µM [1, 3] of 93.4%, a remaining activity at 0.125 µM [1, 4] of 87.6% and a remaining activity at 0.313 µM [1, 3] of 93.3%. It also gave a remaining activity at 0.313 µM [1, 4] of 92.3%, a remaining activity at 0.625 µM [1, 3] of 91.6% and a remaining activity at 0.625 µM [1, 4] of 89.2%. For the same compound, the remaining activity at 1.5 µM [1, 3] was 83.3%, the remaining activity at 1.5 µM [1, 4] was 88.4% and the remaining activity at 3 µM ([1]; 3 µM, B. taurus (heart) mitochondria, mean of replicates, read-out: percent (%) in vitro complex I activity relative to solvent control) was 76.1%. It also gave a remaining activity at 15 µM ([1]; 15 µM, B. taurus (heart) mitochondria, mean of replicates, read-out: percent (%) in vitro complex I activity relative to solvent control) of 30.1%, a remaining activity at 37.5 µM ([1]; 37.5 µM, B. taurus (heart) mitochondria, mean of replicates, read-out: percent (%) in vitro complex I activity relative to solvent control) of 12.9% and a remaining activity at 75 µM [1, 3] of 6.58%. It also gave a remaining activity at 75 µM [1, 4] of 9.15% and an IC50 ([1]; heart mitochondria, read-out: B. taurus Complex I IC50) of 8.5 µM.
`c1ccc2[nH]c(-c3cscn3)nc2c1` [Thiabendazole] was tested, and the LC50 [2, 5] was 375 µM, the LC50 [2, 6] was 375 µM and the “C. elegans L1 relative development & viability” value ([2]; 1 µM, […]) was 0.926. The “C. elegans L1 relative development & viability” value ([2]; 2 µM, […]) was 0.954, the “C. elegans L1 relative development & viability” value ([2]; 3.9 µM, […]) was 0.969 and the “C. elegans L1 relative development & viability” value [2, 7] was 0.996. The “C. elegans L1 relative development & viability” value [2, 8] was 1.000, the “C. elegans L1 relative development & viability” value ([2]; 62.5 µM, score 0-1 relative to DMSO, values >1 set to 1) was 1.000 and the “C. elegans L1 relative development & viability” value ([2]; 125 µM, score 0-1 relative to DMSO, values >1 set to 1) was 1.000. The “C. elegans L1 relative development & viability” value ([2]; 250 µM, […]) was 0.967 and the “C. elegans L1 relative development & viability” value ([2]; 500 µM, […]) was 0.155.
`COC(=O)Nc1nc2ccc(Sc3ccccc3)cc2[nH]1` [fenbendazole, reference compound] was tested, and the “C. elegans L1 relative development & viability (score 0-1 relative to DMSO controls)” value ([2]; 1 µM) was 1.000, the “C. elegans L1 relative development & viability (score 0-1 relative to DMSO controls)” value ([2]; 2 µM) was 1.000 and the “C. elegans L1 relative development & viability (score 0-1 relative to DMSO controls)” value ([2]; 3.9 µM) was 1.000. The “C. elegans L1 relative development & viability (score 0-1 relative to DMSO controls)” value ([2]; 15.6 µM) was 0.861, the “C. elegans L1 relative development & viability (score 0-1 relative to DMSO controls)” value ([2]; 31.3 µM) was 0.962 and the “C. elegans L1 relative development & viability (score 0-1 relative to DMSO controls)” value ([2]; 62.5 µM) was 0.936. The “C. elegans L1 relative development & viability (score 0-1 relative to DMSO controls)” value ([2]; 125 µM) was 0.785, the “C. elegans L1 relative development & viability (score 0-1 relative to DMSO controls)” value ([2]; 250 µM) was 0.877 and the “C. elegans L1 relative development & viability (score 0-1 relative to DMSO controls)” value ([2]; 500 µM) was 0.667. The LC50 [2, 5] was > 500 µM, the LC50 [2, 6] was > 500 µM and the “C. elegans L1 relative development & viability” value [2, 9] was 1.000. The “C. elegans L1 relative development & viability” value [2, 10] was 1.000, the “C. elegans L1 relative development & viability” value [2, 11] was 1.000 and the “C. elegans L1 relative development & viability” value ([2]; 15.6 µM, […]) was 0.861. The “C. elegans L1 relative development & viability” value ([2]; 31.3 µM, […]) was 0.962, the “C. elegans L1 relative development & viability” value ([2]; 62.5 µM, […]) was 0.936 and the “C. elegans L1 relative development & viability” value ([2]; 125 µM, […]) was 0.785. For the same compound, the “C. elegans L1 relative development & viability” value ([2]; 250 µM, […]) was 0.877 and the “C. elegans L1 relative development & viability” value ([2]; 500 µM, […]) was 0.667.
For `COC(=O)Nc1nc2ccc(C(=O)c3ccccc3)cc2[nH]1` [mebendazole, reference compound], the LC50 [2, 5] was > 250 µM, the LC50 [2, 6] was > 250 µM and the “C. elegans L1 relative development & viability” value [2, 9] was 1.000. The “C. elegans L1 relative development & viability” value [2, 10] was 1.000, the “C. elegans L1 relative development & viability” value [2, 11] was 1.000 and the “C. elegans L1 relative development & viability” value [2, 7] was 1.000. The “C. elegans L1 relative development & viability” value [2, 8] was 1.000, the “C. elegans L1 relative development & viability” value ([2]; 62.5 µM, […]) was 0.948 and the “C. elegans L1 relative development & viability” value ([2]; 125 µM, […]) was 0.701. The “C. elegans L1 relative development & viability” value ([2]; 250 µM, […]) was 0.623.

From publication PMC11079024, “Identification of a family of species-selective complex I inhibitors as potential anthelmintics” (Nature Communications, 2024)
